Assay results as given in US20210045385A1, “PYRIDAZINONE-SUBSTITUTED KETOXIMES AS HERBICIDES” (FMC Corporation, priority 2018, published 2021).

Assays:
Assay type in all cases: in vivo
[1] = test system: Italian ryegrass (Lolium multiflorum); test: Test A preemergence, visual plant response rating; details: for Ryegrass, Italian plant response rating (0 to 100 scale): approx. 10 days
Procedure, shortened: (§1)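 Greenhouse pot test in loam–sand soil mix: compound in a surfactant-containing non-phytotoxic solvent applied preemergence (directed soil spray) or postemergence (one- to two-leaf plants, 2–10 cm). Injury scored visually after ~10 days, 0–100.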

[2] = test system: ragweed (common ragweed, Ambrosia elatior); test: Test A preemergence, visual plant response rating; details: for Ragweed plant response rating (0 to 100 scale): approx. 10 days
Procedure, shortened: as §1

[3] = test system: pigweed (Amaranthus retroflexus); test: Test A preemergence, visual plant response rating; details: for Pigweed plant response rating (0 to 100 scale): approx. 10 days
Procedure, shortened: as §1

[4] = test system: foxtail, green (green foxtail, Setaria viridis); test: Test A preemergence, visual plant response rating; details: for Foxtail, Green plant response rating (0 to 100 scale): approx. 10 days
Procedure, shortened: as §1

[5] = test system: barnyardgrass (Echinochloa crus-galli); test: Test A preemergence, visual plant response rating; details: for Barnyardgrass plant response rating (0 to 100 scale): approx. 10 days
Procedure, shortened: as §1

[6] = test system: kochia (Kochia scoparia); test: Test A preemergence, visual plant response rating; details: for Kochia plant response rating (0 to 100 scale): approx. 10 days
Procedure, shortened: as §1

[7] = test system: ducksalad (Heteranhera limosa); test: Test B flooded paddy test, visual plant response rating; details: 250 g ai/ha, Flood, applied to paddy water, 2-leaf stage, evaluated after 13 to 15 days
Procedure, shortened: (§2)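 Plants were raised to the 2-leaf stage, then pots were flooded to 3 cm above the soil and test compound was applied directly into the paddy water. Water depth was held for the whole test; after 13 to 15 days in a greenhouse, responses were scored visually against controls.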

[8] = test system: barnyardgrass (Echinochloa crus-galli); test: as above; details: 250 g ai/ha, Flood, applied to paddy water, 2-leaf stage, evaluated after 13 to 15 days
Procedure, shortened: as §2

[9] = test system: sedge, umbrella (small-flower umbrella sedge, Cyperus difformis); test: as above; details: 250 g ai/ha, Flood, applied to paddy water, 2-leaf stage, evaluated after 13 to 15 days
Procedure, shortened: as §2

[10] = test system: rice (Oryza sativa); test: as above; details: 250 g ai/ha, Flood, applied to paddy water, 2-leaf stage, evaluated after 13 to 15 days
Procedure, shortened: as §2

[11] = test system: Italian ryegrass (Lolium multiflorum); test: Test A postemergence, visual plant response rating; details: for Ryegrass, Italian plant response rating: 125 g ai/ha, 0 to 100 scale (0 no effect, 100 complete control)
Procedure, shortened: as §1

[12] = test system: ragweed (common ragweed, Ambrosia elatior); test: Test A postemergence, visual plant response rating; details: for Ragweed plant response rating (0 to 100 scale): 500 g ai/ha, postemergence, 0 is no effect, 100 is complete control; for Ragweed plant response rating: Postemergence, 125 g ai/ha, 0 to 100 scale (0 no effect, 100 complete control)
Procedure, shortened: as §1

[13] = test system: galium (catchweed bedstraw, Galium aparine); test: Test A postemergence, visual plant response rating; details: for Galium plant response rating (0 to 100 scale): 500 g ai/ha, postemergence, 0 is no effect, 100 is complete control; for Galium plant response rating: Postemergence, 125 g ai/ha, 0 to 100 scale (0 no effect, 100 complete control)
Procedure, shortened: as §1

[14] = test system: corn (Zea mays); test: Test A postemergence, visual plant response rating; details: for Corn plant response rating (0 to 100 scale): 500 g ai/ha, postemergence, 0 is no effect, 100 is complete control; for Corn plant response rating: Postemergence, 125 g ai/ha, 0 to 100 scale (0 no effect, 100 complete control)
Procedure, shortened: as §1

[15] = test system: pigweed (Amaranthus retroflexus); test: Test A postemergence, visual plant response rating; details: for Pigweed plant response rating (0 to 100 scale): 500 g ai/ha, postemergence, 0 is no effect, 100 is complete control; for Pigweed plant response rating: Postemergence, 125 g ai/ha, 0 to 100 scale (0 no effect, 100 complete control)
Procedure, shortened: as §1

[16] = test system: wheat (Triticum aestivum); test: Test A postemergence, visual plant response rating; details: for Wheat plant response rating: 0 to 100 scale (0 no effect, 100 complete control)
Procedure, shortened: as §1

[17] = test system: blackgrass (Alopecurus myosuroides); test: Test A postemergence, visual plant response rating; details: for Blackgrass plant response rating (0 to 100 scale): 500 g ai/ha, postemergence, 0 is no effect, 100 is complete control; for Blackgrass plant response rating: Postemergence, 125 g ai/ha, 0 to 100 scale (0 no effect, 100 complete control)
Procedure, shortened: as §1

[18] = test system: foxtail, green (green foxtail, Setaria viridis); test: Test A postemergence, visual plant response rating; details: for Foxtail, Green plant response rating (0 to 100 scale): 500 g ai/ha, postemergence, 0 is no effect, 100 is complete control; for Foxtail, Green plant response rating: Postemergence, 125 g ai/ha, 0 to 100 scale (0 no effect, 100 complete control)
Procedure, shortened: as §1

[19] = test system: barnyardgrass (Echinochloa crus-galli); test: Test A postemergence, visual plant response rating; details: for Barnyardgrass plant response rating (0 to 100 scale): 500 g ai/ha, postemergence, 0 is no effect, 100 is complete control; for Barnyardgrass plant response rating: Postemergence, 125 g ai/ha, 0 to 100 scale (0 no effect, 100 complete control)
Procedure, shortened: as §1

[20] = test system: kochia (Kochia scoparia); test: Test A postemergence, visual plant response rating; details: for Kochia plant response rating (0 to 100 scale): 500 g ai/ha, postemergence, 0 is no effect, 100 is complete control; for Kochia plant response rating: Postemergence, 125 g ai/ha, 0 to 100 scale (0 no effect, 100 complete control)
Procedure, shortened: as §1

[21] = 500 g ai/ha, postemergence, 0 is no effect, 100 is complete control
[22] = 125 g ai/ha, preemergence, 0 to 100 scale, 0 no effect, 100 complete control

Row | SMILES | Ryegrass, Italian plant response rating (0 to 100 scale) ([1]; 500 g ai/ha Preemergence) | Ragweed plant response rating (0 to 100 scale) ([2]; 500 g ai/ha Preemergence) | Pigweed plant response rating (0 to 100 scale) ([3]; 500 g ai/ha Preemergence) | Foxtail, Green plant response rating (0 to 100 scale) ([4]; 500 g ai/ha Preemergence) | Barnyardgrass plant response rating (0 to 100 scale) ([5]; 500 g ai/ha Preemergence) | Kochia plant response rating (0 to 100 scale) ([6]; 500 g ai/ha Preemergence) | Plant response rating, Ducksalad (0 to 100 scale, 0 is no effect, 100 is complete control) [7] | Plant response rating, Barnyardgrass (0 to 100 scale, 0 is no effect, 100 is complete control) [8] | Plant response rating, Sedge, Umbrella (0 to 100 scale, 0 is no effect, 100 is complete control) [9] | Plant response rating, Rice (0 to 100 scale, 0 is no effect, 100 is complete control) [10] | Ryegrass, Italian plant response rating (0 to 100 scale) [11, 21] | Ragweed plant response rating (0 to 100 scale) [12] | Ragweed plant response rating [12] | Corn plant response rating (0 to 100 scale) [14] | Corn plant response rating [14] | Pigweed plant response rating (0 to 100 scale) [15] | Pigweed plant response rating [15] | Blackgrass plant response rating (0 to 100 scale) [17] | Blackgrass plant response rating [17] | Foxtail, Green plant response rating (0 to 100 scale) [18] | further results
1 | CCn1nc(C)c(O)c(C(=NOC)c2cccc(Cl)c2)c1=O (mixture of isomers) [Compound 2] | 60 | 0 | 0 | 50 | 50 | 0 | 0 | 0 | 0 | 0 | 80 | 20 | 10 | 0 | 0 | 10 | 0 | 20 | 0 | 20 | Ryegrass, Italian plant response rating (0 to 100 scale) ([1]; 125 g ai/ha Preemergence): 20; Ragweed plant response rating (0 to 100 scale) ([2]; 125 g ai/ha Preemergence): 0; Pigweed plant response rating (0 to 100 scale) ([3]; 125 g ai/ha Preemergence): 0; Foxtail, Green plant response rating (0 to 100 scale) ([4]; 125 g ai/ha Preemergence): 0; Barnyardgrass plant response rating (0 to 100 scale) ([5]; 125 g ai/ha Preemergence): 0; Kochia plant response rating (0 to 100 scale) ([6]; 125 g ai/ha Preemergence): 0; Ryegrass, Italian plant response rating ([11]; Postemergence): 20; Galium plant response rating (0 to 100 scale) [13]: 30; Galium plant response rating [13]: 10; Wheat plant response rating (0 to 100 scale) [16, 21]: 10; Wheat plant response rating ([16]; Postemergence, 125 g ai/ha): 10; Foxtail, Green plant response rating [18]: 0; Barnyardgrass plant response rating (0 to 100 scale) [19]: 30; Barnyardgrass plant response rating [19]: 0; Kochia plant response rating (0 to 100 scale) [20]: 20; Kochia plant response rating [20]: 10
2 | CON=C(c1cccc(Cl)c1)c1c(O)c(C)n[nH]c1=O (mixture of isomers) [Compound 143] | 50 | 0 | 0 | 80 | 30 | 10 | 0 | 0 | 0 | 0 | 60 | 0 | 0 | 20 | 0 | 20 | 0 | 40 | 10 | 40 | Ryegrass, Italian plant response rating [1, 22]: 20; Ragweed plant response rating [2, 22]: 0; Pigweed plant response rating [3, 22]: 0; Foxtail, Green plant response rating [4, 22]: 30; Barnyardgrass plant response rating [5, 22]: 0; Kochia plant response rating [6, 22]: 0; Ryegrass, Italian plant response rating (0 to 100 scale) ([11]; Postemergence, rate not given, approx. 10 days): 20; Galium plant response rating (0 to 100 scale) [13]: 0; Galium plant response rating [13]: 0; Wheat plant response rating ([16]; Postemergence, 500 g ai/ha): 20; Wheat plant response rating (0 to 100 scale) ([16]; Postemergence, approx. 10 days): 0; Foxtail, Green plant response rating [18]: 20; Barnyardgrass plant response rating (0 to 100 scale) [19]: 40; Barnyardgrass plant response rating [19]: 10; Kochia plant response rating (0 to 100 scale) [20]: 20; Kochia plant response rating [20]: 0
3 | CO/N=C(\c1cccc(Cl)c1)c1c(O)c(C)nn(C)c1=O [Compound 10, 4-[(E)-(3-chlorophenyl)(methoxyimino)methyl]-5-hydroxy-2,6-dimethyl-3(2H)-pyridazinone] | 90 | 90 | 100 | 20 | 10 | 90 | 0 | 0 | 0 | 0 | 90 | 100 | 90 | 0 | 0 | 60 | 20 | 30 | 10 | 20 | Ryegrass, Italian plant response rating (0 to 100 scale) ([1]; 125 g ai/ha Preemergence): 30; Ragweed plant response rating (0 to 100 scale) ([2]; 125 g ai/ha Preemergence): 70; Pigweed plant response rating (0 to 100 scale) ([3]; 125 g ai/ha Preemergence): 20; Foxtail, Green plant response rating (0 to 100 scale) ([4]; 125 g ai/ha Preemergence): 20; Barnyardgrass plant response rating (0 to 100 scale) ([5]; 125 g ai/ha Preemergence): 0; Kochia plant response rating (0 to 100 scale) ([6]; 125 g ai/ha Preemergence): 30; Ryegrass, Italian plant response rating ([11]; Postemergence): 60; Wheat plant response rating (0 to 100 scale) [16, 21]: 20; Wheat plant response rating ([16]; Postemergence, 125 g ai/ha): 0; Foxtail, Green plant response rating [18]: 0; Barnyardgrass plant response rating (0 to 100 scale) [19]: 10; Barnyardgrass plant response rating [19]: 0; Kochia plant response rating (0 to 100 scale) [20]: 80; Kochia plant response rating [20]: 70
4 | CO/N=C(/c1cccc(Cl)c1)c1c(O)c(C)nn(C)c1=O [Compound 11, 4-[(Z)-(3-chlorophenyl)(methoxyimino)methyl]-5-hydroxy-2,6-dimethyl-3(2H)-pyridazinone] | 80 | 50 | 100 | 70 | 40 | 80 | 0 | 0 | 0 | 0 | 80 | 100 | 80 | 10 | 0 | 80 | 40 | 70 | 30 | 40 | Ryegrass, Italian plant response rating (0 to 100 scale) ([1]; 125 g ai/ha Preemergence): 60; Ragweed plant response rating (0 to 100 scale) ([2]; 125 g ai/ha Preemergence): 50; Pigweed plant response rating (0 to 100 scale) ([3]; 125 g ai/ha Preemergence): 40; Foxtail, Green plant response rating (0 to 100 scale) ([4]; 125 g ai/ha Preemergence): 0; Barnyardgrass plant response rating (0 to 100 scale) ([5]; 125 g ai/ha Preemergence): 0; Kochia plant response rating (0 to 100 scale) ([6]; 125 g ai/ha Preemergence): 10; Ryegrass, Italian plant response rating ([11]; Postemergence): 60; Wheat plant response rating (0 to 100 scale) [16, 21]: 10; Wheat plant response rating ([16]; Postemergence, 125 g ai/ha): 0; Foxtail, Green plant response rating [18]: 10; Barnyardgrass plant response rating (0 to 100 scale) [19]: 10; Barnyardgrass plant response rating [19]: 10; Kochia plant response rating (0 to 100 scale) [20]: 80; Kochia plant response rating [20]: 70
